The numbers were not newly measured in US20250333373A1, “L-2-Amino-4-Halobutyric Acid Derivative-L-Tartrate and Preparation Method Thereof” (Vulpes Agricultural Corp., priority 2022, published 2025), which cites them from elsewhere.

The conditions of the series: for herbicidal effect: isomers of racemic glufosinate.

As to `CP(=O)(O)CC[C@@H](N)C(=O)O` [D], the herbicidal effect entry was “almost inactive”.

Consider `CP(=O)(O)CC[C@H](N)C(=O)O` [L-glufosinate], for which the herbicidal effect result is on record as “has an herbicidal effect”. Where the note is “versus common (racemic) glufosinate”, the “herbicidal activity relative to common glufosinate” value is “twice”.
